# Test results: PubChem BioAssay (NCI)
#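 A five-concentration, 48-hour dose response in 96-well plates underlies each endpoint, interpolated linearly between surrounding concentrations. Abbreviation: GI50, concentration required for 50% inhibition of growth. TGI marks complete inhibition of growth.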
# How the values were obtained:
# Experiment in all cases: NCI anticancer screen, dose series, 48 h
# [1] = test system: A549 NSCLC
# [2] = test system: HCT-15 colon
# [3] = test system: IGROV1 ovarian
# [4] = test system: KM12 colon
# [5] = test system: M14 melanoma
# [6] = test system: NCI-H23 lung
# [7] = test system: SK-MEL-5 melanoma
# [8] = test system: SN12C renal
# [9] = test system: T-47D breast
# [10] = test system: UACC-257 melanoma
SMILES,TGI [1] [µM],TGI [2] [µM],TGI [3] [µM],TGI [4] [µM],TGI [5] [µM],TGI [6] [µM],TGI [7] [µM],TGI [8] [µM],TGI [9] [µM],TGI [10] [µM],GI50 [1] [µM],GI50 [2] [µM],GI50 [3] [µM],GI50 [4] [µM],GI50 [5] [µM],GI50 [6] [µM],GI50 [7] [µM],GI50 [8] [µM],GI50 [9] [µM],GI50 [10] [µM]
CN(C)CCNc1ccc([N+](=O)[O-])c2nc3ccccc3c(N)c12,4.23,4.01,2.78,1.75,1.94,6.55,2.79,> 10,3.7,> 10,–,–,–,–,–,–,–,–,–,–
CC(=O)OC1COC(S[As](C)C)C(OC(C)=O)C1OC(C)=O (stereo not drawn),> 32.4,1.36,1.58,9.24,1.1,4.53,0.253,2.74,19.9,–,3.51,0.191,0.225,1.15,< 0.0419,0.322,0.0658,0.48,2.67,2.61
CC1(C)N=C(N)N=C(N)N1c1ccc(F)c(C(F)(F)F)c1,–,> 100,> 100,> 100,> 100,> 100,> 100,> 100,> 100,> 100,0.31,1.58,0.53,1.81,0.827,2.53,3.04,5.13,> 90.7,> 57.8
Cn1c(COC(=O)N2CCCCC2)nc2c(N3CCOCC3)nc(-c3ccccc3)nc21,3.45,0.509,1.81,3.22,1.89,3.11,2.79,2.17,3.91,2.67,1.48,0.212,0.534,1.46,0.509,1.48,1.47,0.868,1.47,1.22
CCC[C@H](N[C@@H]1CCc2cc(F)cc(F)c2C1)C(=O)Nc1cn(C(C)(C)CNCC(C)(C)C)cn1,> 100,75.2,> 100,> 88.7,26.9,> 89.9,24.8,> 100,> 65.4,37.7,23.2,15.7,28.6,24.1,10.5,17.3,12.2,24.8,16,13.2
C#C[C@]1(O)CC[C@H]2[C@@H]3CC=C4c5sc(N=C(N)N)nc5CC[C@]4(C)[C@H]3CC[C@@]21C,2.72,1.98,2.41,2.55,1.56,2.92,1.66,2.72,3.16,1.4,0.865,0.525,1.03,1.1,0.497,1.26,0.628,1.31,1.19,0.369
C(=C1c2ccccc2-c2ccccc21)c1ccccn1,49.5,49.3,35.9,14.2,18.2,96.7,26.5,> 100,50.9,> 100,7.69,6.21,4.89,3.6,4.06,10.3,11.5,12.1,5.03,20.1
O=S1(=O)CCN(Cc2ccccn2)CC1,> 100,> 100,> 100,> 100,> 100,> 100,> 100,> 100,> 100,> 100,–,–,–,–,–,–,–,–,–,–
Nc1cc(-c2ccccc2)ccc1O,> 100,> 100,> 100,> 100,> 100,> 100,> 100,> 100,> 100,> 100,> 100,68.7,> 100,58.4,> 100,> 100,> 100,68.9,55.3,> 100
CC(C)(C)c1ccc([I+]c2ccc(C(C)(C)C)cc2)cc1,6.65,18.2,12.2,2.83,4.09,7.57,1.19,5.21,5.67,2.54,2.43,5.08,2.33,1.04,1.47,1.69,0.348,1.99,0.745,0.595
COC(=O)C1=Nc2c(C)nn(-c3ccccc3)c2N=C(c2ccc(C)cc2)C1,> 10,> 10,> 10,> 10,> 10,> 10,> 10,> 10,> 10,> 10,–,–,–,–,–,–,–,–,–,–
COC(CCP(=O)(c1ccccc1)c1ccccc1)(C(=O)c1ccccc1)c1ccccc1 (stereo not drawn),16.5,13.6,25.4,13.4,15.3,17.8,10.9,20,12.3,11.8,3.77,3.19,8.06,3.06,3.5,4.5,2.39,5.23,2.06,3.11
COC(=O)c1ccccc1NC(=O)/C(=N\NC(C)(C)C)C(C#N)c1nc(-c2ccc([N+](=O)[O-])cc2)cs1 (stereo not drawn),> 100,> 100,> 100,> 100,> 100,> 100,> 100,> 100,> 100,> 100,–,–,–,–,–,–,–,–,–,–
CC(ONC(=O)c1cc(C(F)(F)F)cc(C(F)(F)F)c1)C(=O)Nc1ccc(Cl)cc1 (stereo not drawn),> 41.3,20,> 52,29.4,25.3,10.6,7.86,> 100,> 60.8,20.1,4.68,4.98,8.86,5,7.46,3.55,2.79,5.44,3.78,3.83
C=C=C(C)[Si](C)(C)C,> 100,> 100,> 100,> 100,> 100,> 100,> 100,> 100,> 100,> 100,–,–,–,–,–,–,–,–,–,–
COc1ccc(C(O)CNC(=O)c2ccccc2)cc1 (stereo not drawn),> 100,> 100,> 100,> 100,> 100,> 100,> 100,> 100,> 100,> 100,–,–,–,–,–,–,–,–,–,–
